In patent publication US20230065562A1, “DUAL CONTROLS FOR THERAPEUTIC CELL ACTIVATION OR ELIMINATION” (Bellicum Pharmaceuticals, Inc., priority 2015, published 2023):

How the values were obtained:
[1] = test system: non-transduced cells; test: AP20187 on non-transduced cells (annexin V/7-AAD viability); format: cell-based, human
Experimental: Suicide gene functionality was assessed by adding a small molecule synthetic homodimerizer, AP20187 (Ariad Pharmaceuticals; Cambridge, Mass.), at 10 nM final concentration the day following CD19 immunomagnetic selection. Cells were stained with annexin V and 7-amino-actinomycin (7-AAD)(BD Pharmingen) at 24 hours and analyzed by flow cytometry. Cells negative for both annexin V and 7-AAD were considered viable, cells that were annexin V positive were apoptotic, and cells that were both annexin V and 7-AAD positive were necrotic. The percentage killing induced by dimerization was corrected for baseline viability as follows: Percentage killing=100%−(% Viability in AP20187-treated cells÷% Viability in nontreated cells).
The day following immunomagnetic selection, 10 nM of the chemical inducer of dimerization, AP20187, was added to induce apoptosis, which appeared within 24 hours. […] Killing efficiency after correction for baseline viability was about 92.9%±3.8%. Large-scale CD19 selection produced cells that were killed with similar efficiency as small-scale selection: mean viability with and without AP20187, and percentage killing, in large and small scale were about 3.9%, about 84.0%, about 95.4% (n=3) and about 6.6%, about 79.3%, about 91.4% (n=5) respectively. […]

[2] = test system: iCasp9-ΔCD19-transduced MSCs; test: In vivo killing studies of iCasp9-ΔCD19 MSCs in murine model; design: species or system SCID mice
Experimental: All mouse experiments were performed in accordance with the Baylor College of Medicine animal husbandry guidelines. To assess the persistence of modified MSCs in vivo, a SCID mouse model was used in conjunction with an in vivo imaging system. MSCs were transduced with retroviruses coding for the enhanced green fluorescent protein-firefly luciferase (eGFP-FFLuc) gene alone or together with the iCasp9-ΔCD19 gene. Cells were sorted for eGFP positivity by fluorescence activated cell sorting using a MoFlo flow cytometer (Beckman Coulter, Fullerton, Calif.). Doubly transduced cells were also stained with PE-conjugated anti-CD19 and sorted for PE-positivity. SCID mice (8-10 weeks old) were injected subcutaneously with 5×10^5 MSCs with and without iCasp9-ΔCD19 in opposite flanks. […] For in vivo imaging of MSCs expressing eGFP-FFLuc, mice were injected intraperitoneally with D-luciferin (150 mg/kg) and analyzed using the Xenogen-IVIS Imaging System. Total luminescence (a measurement proportional to the total labeled MSCs deposited) at each time point was calculated by automatically defining regions-of-interest (ROIs) over the MSC implantation sites. These ROIs included all areas with luminescence signals at least 5% above background. Total photon counts were integrated for each ROI and an average value calculated. […]

[3] = target: iRC9 (pBP1310 & 1311) (Homo sapiens, UniProt P42345+P62942); test: SRα-SEAP assay of drug specificity, iRC9 switch, 293 cells; conditions: SRα-SEAP reporter, FIG. 108A
Sequence of iRC9 (pBP1310 & 1311) (P42345 2025-2113): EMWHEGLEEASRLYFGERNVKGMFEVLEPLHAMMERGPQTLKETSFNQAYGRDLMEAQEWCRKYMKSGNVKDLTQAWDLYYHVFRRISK
Sequence of iRC9 (pBP1310 & 1311) (P62942 2-107): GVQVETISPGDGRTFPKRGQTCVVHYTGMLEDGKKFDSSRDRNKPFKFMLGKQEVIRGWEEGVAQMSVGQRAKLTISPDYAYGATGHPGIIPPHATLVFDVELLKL
Sequence of iRC9 (pBP1310 & 1311) (P55211 135-416 partner limits assumed): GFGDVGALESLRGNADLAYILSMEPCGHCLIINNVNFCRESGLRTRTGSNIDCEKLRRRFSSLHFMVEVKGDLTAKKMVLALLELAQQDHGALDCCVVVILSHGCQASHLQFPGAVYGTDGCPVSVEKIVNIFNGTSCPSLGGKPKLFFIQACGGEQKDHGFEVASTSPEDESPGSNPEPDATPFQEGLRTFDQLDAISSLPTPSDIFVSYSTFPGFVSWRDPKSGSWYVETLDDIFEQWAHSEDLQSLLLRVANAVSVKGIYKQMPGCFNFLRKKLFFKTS

[4] = target: iRmC9 (pBP1327 & pBP1328) (Homo sapiens, UniProt P42345+P62942, F37V); test: SRα-SEAP assay of drug specificity, iRmC9 switch, 293 cells; conditions: SRα-SEAP reporter
Sequence of iRmC9 (pBP1327 & pBP1328) (P42345 2025-2113): as the sequence (P42345 2025-2113) above
Sequence of iRmC9 (pBP1327 & pBP1328) (P62942 2-107 F37V): as the sequence (P62942 2-107) above, with F36V counted along it
Sequence of iRmC9 (pBP1327 & pBP1328) (P55211 135-416 partner limits assumed): as the sequence (P55211 135-416 partner limits assumed) above

[5] = test system: NF-κB; test: NF-κB SeAP reporter assay of inducible MyD88/CD40 activity; format: cell-based
Experimental: 293T cells were transfected with 1 μg of reporter construct NF-κB SeAP and 4 μg of the iMC+CARζ construct pBP0774 or the MC-rap-CAR construct pBP1440 using the GeneJuice protocol (Novagen). […] After 24 hours of further incubation SeAP activity was determined from cell supernatants.
HEK 293T cells (1.5×10^5) were seeded on a 100-mm tissue culture dish in 10 mL DMEM4500, supplemented with glutamine, penicillin/streptomycin and 10% fetal calf serum. After 16-30 hours incubation, cells were transfected using Novagen's GeneJuice® protocol. Briefly, for each transfection, 0.5 mL OptiMEM was pipetted into a 1.5-mL microcentrifuge tube and 15 μL GeneJuice reagent added followed by 5 sec. vortexing. Samples were rested 5 minutes to settle the GeneJuice suspension. DNA (5 μg total) was added to each tube and mixed by pipetting up and down four times. Samples were allowed to rest for 5 minutes for GeneJuice-DNA complex formation and the suspension added dropwise to one dish of 293T cells. A typical transfection contains 1 μg NFkB-SEAP (5), 4 μg iMC+CARζ(pBP0774) or 4 μg MC-Rap-CAR (pBP1440) (1).
24 hours following transfection (4.1), 293T cells were split to 96-well plates and incubated with dilutions of dimerizing drugs. Briefly, 100 μL media was added to each well of a 96-well flat-bottom plate. Drugs were diluted in tubes to a concentration 4× the top concentration in the gradient to be place on the plate. […] 100 μL from each drug-containing well was then transferred to the adjacent well and the cycle repeated 10 times to produce a serial two-fold step gradient. The last wells were untreated and serve as a control for basal reporter activity. Transfected 293 cells were then trypsinized, washed with complete media, suspended in media and 100 μL aliquoted to each well containing drug (or no drug). Cells were incubated 24 hours.
24 hours after drug stimulation, 96-well plates were wrapped to prevent evaporation and incubated at 65° C. for 2 hours to inactivate endogenous and serum phosphatases while the heat-stable SeAP reporter remains (3, 12, 14). 100 μL samples from each well were loaded into individual wells of a 96-well assay plate with black sides. Samples were incubated with 0.5 mM 4-methylumbelliferyl phosphate (4-MUP) in 0.5 M diethanolamine at pH 10.0 for 4 to 16 hours. Phosphatase activity was measured by fluorescence with excitation at 355 nm and emission at 460 nm. Data was transferred to a Microsoft Excel spreadsheet for tabulation and graphed with GraphPad Prism.

CC[C@H](C(=O)N1CCCC[C@H]1C(=O)O[C@H](CCc1ccc(OC)c(OC)c1)c1cccc(OCC(=O)NCC(CNC(=O)COc2cccc([C@@H](CCc3ccc(OC)c(OC)c3)OC(=O)[C@@H]3CCCCN3C(=O)[C@@H](CC)c3cc(OC)c(OC)c(OC)c3)c2)CN(C)C)c1)c1cc(OC)c(OC)c(OC)c1 [AP20187]
toxicity to non-transduced cells [1]: non-toxic
viability with AP20187 ([1]; non-transduced cells (n=6)): about 86%±9
proportion of surviving iCasp9-positive cells after one week ([2]; qPCR iCasp9/eGFP copy ratio): 0.7%
killing / depletion of iCasp9-positive cells in vivo ([2]; two i.p. injections of 50 μg CID 24 h apart): > 99%

CC[C@H](C(=O)N1CCCC[C@H]1C(=O)O[C@H](CCc1ccc(OC)c(OC)c1)c1cccc(OCC(=O)NCCNC(=O)COc2cccc([C@@H](CCc3ccc(OC)c(OC)c3)OC(=O)[C@@H]3CCCCN3C(=O)[C@@H](CC)c3cc(OC)c(OC)c(OC)c3)c2)c1)c1cc(OC)c(OC)c(OC)c1 [rimiducid]
ligand required to activate the iRC9 switch [3]: > 100 nM
activation of the iRmC9 switch [4]: can activate
EC50 ([5]; MC-rap-CAR construct pBP1440, read-out: EC50 / concentration stimulating NF-κB reporter activity via MC-Rap): > 50 nM
concentration inducing NF-κB reporter via iMC ([5]; iMC+CARζ construct BP774): subnanomolar
